A word on the pEC50: it is the EC50 on a negative log10 scale, so that one unit is a factor of ten.

Molecules are shown by their SMILES. pEC50: −log10 of the molar value.

T1 sequence (Q86WV6 whole entry R71H/G230A/H232R/R293Q): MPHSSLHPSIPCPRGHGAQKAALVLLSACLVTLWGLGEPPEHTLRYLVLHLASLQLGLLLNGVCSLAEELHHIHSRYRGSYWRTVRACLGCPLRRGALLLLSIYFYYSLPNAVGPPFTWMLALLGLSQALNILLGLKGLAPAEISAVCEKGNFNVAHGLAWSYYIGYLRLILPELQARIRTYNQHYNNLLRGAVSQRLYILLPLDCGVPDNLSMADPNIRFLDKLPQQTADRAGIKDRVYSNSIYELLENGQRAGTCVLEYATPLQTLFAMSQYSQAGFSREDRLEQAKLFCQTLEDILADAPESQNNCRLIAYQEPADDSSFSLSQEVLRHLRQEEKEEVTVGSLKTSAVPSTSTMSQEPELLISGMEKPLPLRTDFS

This test concerns the target T1, hSTING (Homo sapiens, UniProt Q86WV6, G230A/H232R/R293Q/R71H).
T1 construct: host or cells: THP1-Dual KO-IFNAR2 cells
Description: STING reporter assay (luciferase) in THP1-Dual KO-IFNAR2 cells stimulated with 2'3'cGAMP. In kind it is cell-based. The settings on record: 2'3'cGAMP 15 μM, 24 h, luciferase reporter activity. The gist of the method: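 THP1-Dual KO-IFNAR2 cells (2×10E6 cells/mL) exposed to compounds at 0.0017-100 μM final, then stimulated with 2′3′cGAMP (15 μM final) delivered by Lipofectamine 2000 transfection. After 24 h at 37° C, secreted luciferase in supernatant read by QUANTI-Luc luminescence; EC50 calculated.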
(In general: A reporter such as luciferase makes a cellular process visible.)
Regarding `Cc1cc(NC(=O)Nc2c[nH]c3ccccc23)cnc1C1CCN(CC(F)(F)F)CC1` [Compound 276, 1-(1H-indol-3-yl)-3-(5-methyl-6-(1-(2,2,2-trifluoroethyl)piperidin-4-yl)pyridin-3-yl)urea], the negative-log EC50 (pEC50) is 6.00 to 6.70.

`O=C(Nc1cnc(C2CC(F)(F)C2)c(Cl)c1)Nc1c[nH]c2ccc(F)cc12` [Compound 277, 1-(5-chloro-6-(3,3-difluorocyclobutyl)pyridin-3-yl)-3-(5-fluoro-1H-indol-3-yl)urea] showed a pEC50 of 6.70 to 7.40.

In the case of `O=C(Nc1cnc(N2CCN(CC(F)(F)F)CC2)c(F)c1)Nc1c[nH]c2ccccc12` [Compound 278, 1-(5-fluoro-6-(4-(2,2,2-trifluoroethyl)piperazin-1-yl)pyridin-3-yl)-3-(1H-indol-3-yl)urea], the pEC50 was 6.00 to 6.70.

`O=C(Nc1cnc(C2CCN(CC(F)(F)F)CC2)c(Cl)c1)Nc1c[nH]c2ccccc12` [Compound 279, 1-(5-chloro-6-(1-(2,2,2-trifluoroethyl)piperidin-4-yl)pyridin-3-yl)-3-(1H-indol-3-yl)urea]: the pEC50 was 6.70 to 7.40.

In turn, `O=C(Nc1ccc(N2CCN(CC(F)(F)F)CC2)nc1)Nc1c[nH]c2ccccc12` [Compound 280, 1-(1H-indol-3-yl)-3-(6-(4-(2,2,2-trifluoroethyl)piperazin-1-yl)pyridin-3-yl)urea] showed a pEC50 of 6.00 to 6.70.

In turn, `O=C(Nc1cnc(N2CCC3(CCCCO3)CC2)c(Cl)c1)Nc1c[nH]c2ccccc12` [Compound 281, 1-(5-chloro-6-(1-oxa-9-azaspiro[5.5]undecan-9-yl)pyridin-3-yl)-3-(1H-indol-3-yl)urea] gave a pEC50 of 6.70 to 7.40.

On to `O=C(Nc1ccc(C2CC(F)(F)C2)c(F)c1)Nc1c[nH]c2ccccc12` [Compound 282, 1-(4-(3,3-difluorocyclobutyl)-3-fluorophenyl)-3-(1H-indol-3-yl)urea], for which the pEC50 is 6.00 to 6.70.

As to `O=C(Nc1cnc(C2CC(F)(F)C2)c(Cl)c1)Nc1c[nH]c2ccccc12` [Compound 283, 1-(5-chloro-6-(3,3-difluorocyclobutyl)pyridin-3-yl)-3-(1H-indol-3-yl)urea], the pEC50 was 6.70 to 7.40.

In turn, `C[C@@H]1CN(c2ncc(NC(=O)Nc3c[nH]c4ccc(Cl)cc34)cc2Cl)CCN1C(=O)OC(C)(C)C` [Compound 284, tert-butyl(R)-4-(3-chloro-5-(3-(5-chloro-1H-indol-3-yl)ureido)pyridin-2-yl)-2-methylpiperazine-1-carboxylate] showed a pEC50 of 6.70 to 7.40.

`O=C(Nc1cnc(N2CC3CCC(C2)O3)c(Cl)c1)Nc1c[nH]c2ccc(Cl)cc12` [Compound 285, 1-(6-(8-oxa-3-azabicyclo[3.2.1]octan-3-yl)-5-chloropyridin-3-yl)-3-(5-chloro-1H-indol-3-yl)urea] gave a pEC50 of 6.70 to 7.40.

Take `C[C@H]1CN(c2ncc(NC(=O)Nc3c[nH]c4ccc(Cl)cc34)cc2Cl)C[C@H](C)O1` [Compound 286, 1-(5-chloro-1H-indol-3-yl)-3-(5-chloro-6-((2S,6S)-2,6-dimethylmorpholino)pyridin-3-yl)urea]: the pEC50 was 6.70 to 7.40.

With `O=C(Nc1cc(Cl)c(C2CCC(F)(F)CC2)cn1)Nc1c[nH]c2ccc(F)cc12` [Compound 287, 1-(4-chloro-5-(4,4-difluorocyclohexyl)pyridin-2-yl)-3-(5-fluoro-1H-indol-3-yl)urea], the pEC50 was 6.70 to 7.40.

Compound `C[C@@H]1CN(c2ncc(NC(=O)Nc3c[nH]c4ccc(Cl)cc34)cc2Cl)C[C@H](C)N1` [Compound 288, 1-(5-chloro-1H-indol-3-yl)-3-(5-chloro-6-(cis-3,5-dimethylpiperazin-1-yl)pyridin-3-yl)urea] gave a pEC50 of 4.00 to 5.30.

In the case of `C[C@H]1CN(c2ncc(NC(=O)Nc3c[nH]c4ccc(Cl)cc34)cc2Cl)C[C@H](C)N1` [Compound 289, 1-(5-chloro-1H-indol-3-yl)-3-(5-chloro-6-((3S,5S)-3,5-dimethylpiperazin-1-yl)pyridin-3-yl)urea], the pEC50 was 4.00 to 5.30.

As to `CC1(C)CN(c2ncc(NC(=O)Nc3c[nH]c4cc(F)c(F)cc34)cc2F)CCO1` [Compound 290, 1-(5,6-difluoro-1H-indol-3-yl)-3-(6-(2,2-dimethylmorpholino)-5-fluoropyridin-3-yl)urea], the pEC50 was 6.70 to 7.40.

On to `C[C@@H]1CN(c2ncc(NC(=O)Nc3c[nH]c4ccc(Cl)cc34)cc2Cl)C[C@@H](C)N1` [Compound 291, 1-(5-chloro-1H-indol-3-yl)-3-(5-chloro-6-((3R,5R)-3,5-dimethylpiperazin-1-yl)pyridin-3-yl)urea], for which the pEC50 is 5.30 to 6.00.

For `O=C(Nc1cnc(N2CCC(F)(F)CC2)c(F)c1)Nc1c[nH]c2ccc(Cl)cc12` [Compound 292, 1-(5-chloro-1H-indol-3-yl)-3-(6-(4,4-difluoropiperidin-1-yl)-5-fluoropyridin-3-yl)urea], the negative logarithm of the EC50 (pEC50) is 6.70 to 7.40.

In turn, `C[C@@H]1CN(c2ncc(NC(=O)Nc3c[nH]c4ccc(Cl)cc34)cc2Cl)C[C@H](C)O1` [Compound 293, 1-(5-chloro-1H-indol-3-yl)-3-(5-chloro-6-((2S,6R)-2,6-dimethylmorpholino)pyridin-3-yl)urea] showed a pEC50 of 6.70 to 7.40.

Regarding `CC1(C)OCC(c2ncc(NC(=O)Nc3c[nH]c4ccc(Cl)cc34)cc2Br)CO1` [Compound 294, 1-(5-bromo-6-(2,2-dimethyl-1,3-dioxan-5-yl)pyridin-3-yl)-3-(5-chloro-1H-indol-3-yl)urea], the pEC50 was 6.70 to 7.40.

As to `O=C(Nc1cnc(C2CCC(F)(F)CC2)c(F)c1)Nc1c[nH]c2ccc(Cl)cc12` [Compound 295, 1-(5-chloro-1H-indol-3-yl)-3-(6-(4,4-difluorocyclohexyl)-5-fluoropyridin-3-yl)urea], the pEC50 is 6.70 to 7.40.

For the compound `C[C@H]1CN(c2ncc(NC(=O)Nc3c[nH]c4ccc(Cl)cc34)cc2Cl)CCN1` [Compound 296, (S)-1-(5-chloro-1H-indol-3-yl)-3-(5-chloro-6-(3-methylpiperazin-1-yl)pyridin-3-yl)urea], the pEC50 was 5.30 to 6.00.

The compound `O=C(Nc1cnc(C2CCN(CC(F)(F)F)CC2)c(Cl)c1)Nc1c[nH]c2ccc(Cl)cc12` [Compound 297, 1-(5-chloro-1H-indol-3-yl)-3-(5-chloro-6-(1-(2,2,2-trifluoroethyl)piperidin-4-yl)pyridin-3-yl)urea] gave a pEC50 of 6.70 to 7.40.

With `CC1(C)CN(c2ncc(NC(=O)Nc3c[nH]c4ccc(Cl)cc34)cc2Cl)CCO1` [Compound 298, 1-(5-chloro-1H-indol-3-yl)-3-(5-chloro-6-(2,2-dimethylmorpholino)pyridin-3-yl)urea], the pEC50 was 6.70 to 7.40.

For the compound `O=C(Nc1ccc(C2CCC2)cc1)Nc1c[nH]c2ccc(Cl)cc12` [Compound 300, 1-(5-chloro-1H-indol-3-yl)-3-(4-cyclobutylphenyl)urea], the pEC50 was 6.70 to 7.40.
